Measurements published in patent publication US10105357B2, “Indication of antibiotic drugs for preparation of cancer inhibition pharmaceutical composition” (LAUNX BIOMEDICAL CO., LTD., priority 2014, dated 2018).
Structures can show the parent of a compound that is named as a salt. Where two headings read alike, the source gives them in different places.

Experiments:
Assay type in all cases: cell-based, human
[1] = test system: cancer cell lines; test: Cell viability analysis (WST-1) on cancer cell lines; conditions: drug 10 μM, 72 hours, WST-1; Table 3
[2] = test system: HI650 (Lung Adenocarcinoma); test: Cell viability analysis, lung cancer HI650; conditions: Homo sapiens, NCI-H1650, 72 h
[3] = test system: A549 (Lung Adenocarcinoma); test: Cell viability analysis, lung cancer A549; conditions: Homo sapiens, A549, 72 h
[4] = test system: AGS (Gastric Adenocarcinoma); test: Cell viability analysis, gastric cancer AGS; conditions: Homo sapiens, 72 h
[5] = test system: MKN-45 (Gastric Adenocarcinoma); test: Cell viability analysis, gastric cancer MKN-45; conditions: Homo sapiens, MKN-45, 72 h
[6] = test system: HepG2 (Hepatocellular Carcinoma); test: Cell viability analysis, hepatic cancer HepG2; conditions: Homo sapiens, HepG2, 72 h
[7] = test system: LoVo (Colorectal Adenocarcinoma); test: Cell viability analysis, colon cancer LoVo; conditions: Homo sapiens, LoVo, 72 h, read-out: cell viability (survival rate), LoVo, drug 10 μM, 72 hours, WST-1, OD450 nm
[8] = test system: A375 (Amelanotic Melanoma); test: Cell viability analysis, skin cancer A375; conditions: Homo sapiens, A-375, 72 h
[9] = test system: HeLa (Cervix Adenocarcinoma); test: Cell viability analysis, cervical cancer HeLa; conditions: Homo sapiens, HeLa, 72 h
[10] = test system: PC3 (p53−) (Prostate Adenocarcinoma); test: Cell viability analysis, prostate cancer PC3; conditions: Homo sapiens, 72 h
[11] = test system: TSGH-8301 (Urinary Bladder Carcinoma); test: Cell viability analysis, bladder cancer TSGH-8301; conditions: Homo sapiens, 72 h
[12] = test system: MCF7 (Mammary Gland, Adenocarcinoma); test: Cell viability analysis, breast cancer MCF7; conditions: Homo sapiens, MCF7, 72 h
[13] = test system: HL-60 (Acute Promyelocytic Leukemia); test: Cell viability analysis, leukemia HL-60; conditions: Homo sapiens, HL-60, 72 h
[14] = drug 10 μM, 72 hours, WST-1, OD450 nm, read-out: cell viability (survival rate), H1650
[15] = drug 10 μM, 72 hours, WST-1, OD450 nm, read-out: cell viability (survival rate), A549
[16] = drug 10 μM, 72 hours, WST-1, OD450 nm, read-out: cell viability (survival rate), AGS
[17] = drug 10 μM, 72 hours, WST-1, OD450 nm, read-out: cell viability (survival rate), MKN-45
[18] = drug 10 μM, 72 hours, WST-1, OD450 nm, read-out: cell viability (survival rate), HepG2
[19] = drug 10 μM, 72 hours, WST-1, OD450 nm, read-out: cell viability (survival rate), A375
[20] = drug 10 μM, 72 hours, WST-1, OD450 nm, read-out: cell viability (survival rate), HeLa
[21] = drug 10 μM, 72 hours, WST-1, OD450 nm, read-out: cell viability (survival rate), PC3
[22] = drug 10 μM, 72 hours, WST-1, OD450 nm, read-out: cell viability (survival rate), TSGH
[23] = drug 10 μM, 72 hours, WST-1, OD450 nm, read-out: cell viability (survival rate), MCF7
[24] = drug 10 μM, 72 hours, WST-1, OD450 nm, read-out: cell viability (survival rate), HL-60
[25] = read-out: cell viability (survival rate), H1650, drug 10 μM, 72 hours, WST-1, OD450 nm
[26] = read-out: cell viability (survival rate), A549, drug 10 μM, 72 hours, WST-1, OD450 nm
[27] = read-out: cell viability (survival rate), AGS, drug 10 μM, 72 hours, WST-1, OD450 nm
[28] = read-out: cell viability (survival rate), MKN-45, drug 10 μM, 72 hours, WST-1, OD450 nm
[29] = read-out: cell viability (survival rate), HepG2, drug 10 μM, 72 hours, WST-1, OD450 nm
[30] = read-out: cell viability (survival rate), A375, drug 10 μM, 72 hours, WST-1, OD450 nm
[31] = read-out: cell viability (survival rate), HeLa, drug 10 μM, 72 hours, WST-1, OD450 nm
[32] = read-out: cell viability (survival rate), PC3, drug 10 μM, 72 hours, WST-1, OD450 nm
[33] = read-out: cell viability (survival rate), TSGH, drug 10 μM, 72 hours, WST-1, OD450 nm
[34] = read-out: cell viability (survival rate), MCF7, drug 10 μM, 72 hours, WST-1, OD450 nm
[35] = read-out: cell viability (survival rate), HL-60, drug 10 μM, 72 hours, WST-1, OD450 nm

Structure (SMILES)	inhibition effect on different cancer cell lines [1]	viability at 10 µM [2, 14] [%]	viability at 10 µM [3, 15] [%]	viability at 10 µM [4, 16] [%]	viability at 10 µM [5, 17] [%]	viability at 10 µM [6, 18] [%]	viability at 10 µM [7] [%]	viability at 10 µM [8, 19] [%]	viability at 10 µM [9, 20] [%]	viability at 10 µM [2, 25] [%]	viability at 10 µM [3, 26] [%]	viability at 10 µM [4, 27] [%]	viability at 10 µM [5, 28] [%]	viability at 10 µM [6, 29] [%]	viability at 10 µM [8, 30] [%]	viability at 10 µM [9, 31] [%]	viability at 10 µM [10, 32] [%]	viability at 10 µM [11, 33] [%]	viability at 10 µM [12, 34] [%]	viability at 10 µM [13, 35] [%]	other results
O=C(O)c1cn(-c2ccc(F)cc2)c2cc(N3CCNCC3)c(F)cc2c1=O [Sarafloxacin HCl]	significant inhibition effect	58.9	98.6	88	75.3	91.1	106	97.8	81												viability at 10 µM [10, 21]: 80.9%; viability at 10 µM [11, 22]: 122%; viability at 10 µM [12, 23]: 107%; viability at 10 µM [13, 24]: 112%
Cc1ncc([N+](=O)[O-])n1CC(C)O (stereo not drawn) [Secnidazole (Flagentyl), Secnidazole]	significant inhibition effect						85.4			46.8	69.2	78	77.2	99	117	124	81.6	52.1	81	97.2	
C[C@@H]1CN(c2c(F)c(N)c3c(=O)c(C(=O)O)cn(C4CC4)c3c2F)C[C@H](C)N1 [Sparfloxacin]	significant inhibition effect						97			88.5	86.5	79.9	57.5	97.6	82.6	88.3	50.1	68.1	56.3	99.3	
CC(=O)S[C@@H]1CC2=CC(=O)CC[C@]2(C)[C@H]2CC[C@@]3(C)[C@@H](CC[C@@]34CCC(=O)O4)[C@H]12 [Spironolactone]	significant inhibition effect						67.2			79.8	67.5	96.6	117	90.5	61	118	88.5	90.1	87.7	57.2	
Cc1cn([C@H]2C=C[C@@H](CO)O2)c(=O)[nH]c1=O [Stavudine]	significant inhibition effect	50.2	38.9	39.2	66.8	97.1	70.7	56.1	98.1												viability at 10 µM [10, 21]: 73.5%; viability at 10 µM [11, 22]: 112%; viability at 10 µM [12, 23]: 56.6%; viability at 10 µM [13, 24]: 96%
[H]/N=C(/N)N[C@H]1[C@H](O)[C@@H](O)[C@H](O[C@@H]2O[C@@H](C)[C@](O)(C=O)[C@H]2O[C@@H]2O[C@@H](CO)[C@H](O)[C@@H](O)[C@@H]2NC)[C@@H](N/C(N)=N\[H])[C@@H]1O [Streptomycin sulfate]	significant inhibition effect						46.6			40.6	57.3	65.5	68.7	84.5	77.5	88.9	59.1	23.3	72	93.3	
Nc1ccc(S(=O)(=O)Nc2ncccn2)cc1 [Sulfadiazine]	significant inhibition effect						93.6			69.2	38.1	91.8	44.4	114	79.5	43.7	70.1	80.4	37.2	106	
COc1ncnc(NS(=O)(=O)c2ccc(N)cc2)c1OC [Sulfadoxine (Sulphadoxine), Sulfadoxine]	significant inhibition effect	62.2	96.6	91.1	87.4	90.5	92.9	65.5	78.2												viability at 10 µM [10, 21]: 119%; viability at 10 µM [11, 22]: 64.3%; viability at 10 µM [12, 23]: 132%; viability at 10 µM [13, 24]: 111%
COc1cnc(NS(=O)(=O)c2ccc(N)cc2)nc1 [Sulfameter (Bayrena), Sulfameter]	significant inhibition effect	84.8	59	67.4	58.6	95.5	89.9	89.2	78.4												viability at 10 µM [10, 21]: 90.2%; viability at 10 µM [11, 22]: 78.6%; viability at 10 µM [12, 23]: 51.7%; viability at 10 µM [13, 24]: 110%
Cc1nnc(NS(=O)(=O)c2ccc(N)cc2)s1 [Sulfamethizole (Proklar), Sulfamethizole]	significant inhibition effect						86.4			99.2	90.4	86.6	84.6	95	99.1	105	86	114	100	104	
Cc1cc(NS(=O)(=O)c2ccc(N)cc2)no1 [Sulfamethoxazole]	significant inhibition effect						71.7			85.8	43.9	67.7	60.7	115	44.3	87.8	44.9	62.1	46.1	99.4	
Nc1ccc(S(=O)(=O)Nc2ccccn2)cc1 [Sulfapyridine (Dagenan), Sulfapyridine]	significant inhibition effect						84.6			69.5	64.5	71.9	53.8	98.9	77.2	71.2	108	64.6	54.7	111	
